In patent publication US20090074766A1, “Methods of inhibiting HIV-2 infection” (priority 2007, published 2009):
Where two headings read alike, the source gives them in different places.

B1: PRO 140: humanized IgG4,κ anti-CCR5 monoclonal antibody, humanized version of murine mAb PA14 (antibody, chains of the INN, looked up, V domains shown)
VH: EVQLVESGGGLVKPGGSLRLSCAASGYTFSNYWIGWVRQAPGKGLEWIGDIYPGGNYIRNNEKFKDKTTLSADTSKNTAYLQMNSLKTEDTAVYYCGSSFGSNYVFAWFTYWGQGTLVTVSS
VL: DIVMTQSPLSLPVTPGEPASISCRSSQRLLSSYGHTYLHWYLQKPGQSPQLLIYEVSNRFSGVPDRFSGSGSGTDFTLKISRVEAEDVGVYYCSQSTHVPLTFGQGTKVEIK

Key:
[1] = test system: HIV-1JR-FL envelope-mediated membrane fusion (HeLa-EnvJRFL and CEM NKR-CCR5 cells); experiment: cell-based; parameters: CI90: unit not given beside the values
Protocol: (§1) The HIV-1 RET assay has been described in detail previously (Litwin et al., 1996). Briefly, fluorescein octadecyl ester (F18; Molecular Probes, Eugene, Oreg.; 5 mg/ml in ethanol), was diluted 1:800 in DMEM labeling medium (DMEM; Invitrogen, Carlsbad, Calif.) with 10% fetal bovine serum (FBS; HyClone, Logan, Utah) and adjusted to an A506 of 0.34±10%. Octadecyl rhodamine B chloride (R18; Molecular Probes; 10 mg/ml in ethanol) was diluted 1:2050 in labeling medium and adjusted to an A565 of 0.52±10%. Both dyes were further diluted 2-fold by addition to cells in T75-cm^2 flasks. HeLa-EnvJRFL and CEM NKR-CCR5 cells were incubated overnight in F18- and R18-containing culture medium, respectively. The following day, medium from HeLa-EnvJRFL cells was removed and 10 ml of 0.5 mM EDTA was added and incubated at 37° C. for 5 min. EDTA was removed and the flask was returned to the incubator for another 5 min followed by striking of the flask to dislodge cells. […] Suspension CEM NKR-CCR5 cells were added directly to a separate 50-ml conical centrifuge tube. Both cell lines were centrifuged at 300×g for 5 min. The supernatant was discarded and cells were resuspended in 10 ml of PBS-/15% FBS. The centrifugation/wash step was repeated twice, after which the cells were counted and concentrations adjusted to 1.5×10^6 cells/ml. Ten μl of each cell type (15,000 cells) were seeded into wells of a 384-well plate. Inhibitor compounds were added immediately thereafter to bring the final well volume to 40 μl, and the plates were incubated for 4 h at 37° C. Compounds were tested individually and in combination at a fixed molar ratio or mass ratio over a range of serial dilutions. The plates were then read on a fluorescence plate reader (Victor^2, Perkin Elmer, Boston, Mass.) using the excitation/emission filter combinations shown in Table 6.
(§2) The “% RET” was calculated according to the following formula after subtraction of background (blank) readings: […]
(§3) The “% Inhibition” was calculated according to the following formula: […]
(§4) Fifty percent inhibition (IC50) values were determined by fitting the inhibition data with a non-linear, four-parameter, variable slope equation (GraphPad Prism, 4.02; GraphPad Software, San Diego, Calif.). Upper and lower inhibition values were constrained to 100% and 0%, respectively for curve fitting.
(§5) For testing, small molecule compounds were solubilized in dimethylsulfoxide (DMSO) to 10 mM and then diluted in DMSO to 200× the final concentration to be utilized in the antiviral assay. Serial dilutions of small molecules were conducted in DMSO. Subsequent dilutions were conducted in medium to achieve a final DMSO concentration in the assay of 0.5%. Peptides and mAbs were diluted in PBS in the absence of DMSO.
(§6) HeLa cells were engineered to express HIV-1 gp120/gp41 from the macrophage-tropic primary isolate JRFL as described (HeLa-EnvJRFL; Litwin et al., 1996). Briefly, the HIV-1LAI Env gene was excised from the plasmid pMA243 (Dragic et al., 1992) and the HIV-1JRFL Env gene was inserted. The HIV-1JRFL Env gene was amplified from the plasmid pUCFL112-1 (Koyanagi et al., 1987). The resulting plasmid, designated JR-FL-pMA243, was sequenced by standard methods and transfected into HeLa cells using lipofectin (Gibco BRL/Invitrogen, Carlsbad, Calif.). HeLa-EnvJRFL transfectants were selected in methotrexate (Sigma, St. Louis, Mo.) and cloned twice by limiting dilution. The transduced human T cell leukemia line CEM NKR-CCR5 cells were obtained from the NIH AIDS Research and Reference Program (Cat. No. 458).
(§7) The HIV-1 RET assay has been described in detail previously (Litwin et al., 1996). Briefly, fluorescein octadecyl ester (F18; Molecular Probes, Eugene, Oreg.; 5 mg/ml in ethanol), was diluted 1:800 in DMEM labeling medium (DMEM; Invitrogen, Carlsbad, Calif.) with 10% fetal bovine serum (FBS; HyClone, Logan, Utah) and adjusted to an A506 of 0.34±10%.

[2] = molecular target: HIV-1JR-FL envelope-mediated membrane fusion (HeLa-EnvJRFL and CEM NKR-CCR5 cells) (Homo sapiens, UniProt P51681); experiment: cell-based; parameters: CI90: unit not given beside the values; settings: for Mean Dose Reduction (2D7) / Mean Dose Reduction (Cpd in combination): 2D7 in combination with the labelled inhibitor, 1:1 molar ratio
Protocol: as §1, §2, §3, §4, §5, §6, §7

[3] = PRO 140 in combination with the labelled inhibitor, 1:1 molar ratio
[4] = labelled 1st inhibitor with 2nd inhibitor PRO 140, equimolar, mean ± SD of 4-12 assays
[5] = molar ratio PRO 140 to labelled inhibitor 1:5
[6] = molar ratio PRO 140 to labelled inhibitor 5:1
[7] = labelled 1st inhibitor with 2nd inhibitor UK-427,857, equimolar
[8] = SCH-D (Drug 1) with TAK-779 (Drug 2), molar ratio 1:1
[9] = inhibitor tested individually, experiment depicted in FIG. 11B
[10] = inhibitor tested individually, experiment depicted in FIG. 11A

Chain of HIV-1JR-FL envelope-mediated membrane fusion (HeLa-EnvJRFL and CEM NKR-CCR5 cells) (Homo sapiens, UniProt P51681) (P51681 whole entry, the tested form may be a part): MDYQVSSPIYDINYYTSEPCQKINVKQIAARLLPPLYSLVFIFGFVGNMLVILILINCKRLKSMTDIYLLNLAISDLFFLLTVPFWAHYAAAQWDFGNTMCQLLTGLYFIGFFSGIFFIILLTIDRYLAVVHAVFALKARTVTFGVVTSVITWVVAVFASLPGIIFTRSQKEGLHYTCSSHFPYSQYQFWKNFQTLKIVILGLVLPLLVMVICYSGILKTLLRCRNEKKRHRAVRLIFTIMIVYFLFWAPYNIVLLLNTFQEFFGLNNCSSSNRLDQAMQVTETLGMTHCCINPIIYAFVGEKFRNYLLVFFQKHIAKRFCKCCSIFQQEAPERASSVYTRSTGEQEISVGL

Molecule | Mean Dose Reduction (Cpd in combination) [1, 3] | Mean Dose Reduction (PRO 140) [1, 3] | Mean Dose Reduction (Cpd. in combination) [1, 5] | Mean Dose Reduction (PRO 140) [1, 5] | Mean Dose Reduction (Cpd. in combination) [1, 6] | Mean Dose Reduction (PRO 140) [1, 6] | Mean Dose Reduction (2D7) [2] | Mean Dose Reduction (Cpd in combination) [2] | IC90 [2, 9] | IC90 [2, 10] | further results
COc1ccnc2[nH]cc(C(=O)C(=O)N3CCN(C(=O)c4ccccc4)C[C@H]3C)c12 [BMS-378806, (R)-N-(benzoyl)-3-methyl-N′-[(4-methoxy-7-azaindol-3-yl)-oxoacetyl]-piperazine] | 2.85 ± 0.76 | 1.64 ± 0.30 | 1.07 ± 0.31 | 3.64 ± 0.73 | 8.88 ± 4.16 | 1.14 ± 0.06 | – | – | – | – | Mean CI (Combination Index at IC50) [1, 3]: 1.21±0.21; Mean Combination Index (at IC50) ([1]; PRO 140 in combination with the labelled inhibitor, molar ratio PRO 140 to inhibitor 1:5): 1.55 ± 0.24; Mean Combination Index (at IC50) ([1]; PRO 140 in combination with the labelled inhibitor, molar ratio PRO 140 to inhibitor 5:1): 1.12 ± 0.10; CI90 [1, 4]: 1.1 ± 0.22
COC[C@@H](c1ccc(C(F)(F)F)cc1)N1CCN(C2(C)CCN(C(=O)c3c(C)ncnc3C)CC2)C[C@@H]1C [SCH-D, 1-[(4,6-dimethyl-5-pyrimidinyl)carbonyl]-4-[4-[2-methoxy-1(R)-4-(trifluoromethyl)phenyl]ethyl-3(S)-methyl-1-piperazinyl]-4-methylpiperidine] | 3.90 ± 0.71 | 4.21 ± 0.96 | 1.73 ± 0.19 | 9.95 ± 2.03 | 8.44 ± 1.27 | 1.92 ± 0.40 | 3.25 ± 0.56 | 4.04 ± 0.78 | 34 nM | – | IC50 ([1]; 1st inhibitor alone (Table 13)): 3.2 nM; IC90 ([1]; 1st inhibitor alone (Table 13)): 16 nM; CI50 ([1]; labelled 1st inhibitor with 2nd inhibitor TAK-779, equimolar): 1.3 ± 0.18; CI50 [1, 7]: 0.86 ± 0.03; CI90 [1, 7]: 0.75 ± 0.02; Mean CI ± stdev [2, 8]: 1.12±0.32; Mean DR (Drug 1) [2, 8]: 1.48 ± 0.96; CI90 ([2]; SCH-D and UK-427,857 1:1, experiment depicted in FIG. 11B): 0.73; IC90 ([2]; read-out: IC90 of the combination, 1:1 fixed molar ratio combination of SCH-D and UK-427,857, FIG. 11B): 31 nM
Cc1nnc(C(C)C)n1C1CC2CCC(C1)N2CC[C@H](NC(=O)C1CCC(F)(F)CC1)c1ccccc1 (stereo partly drawn) [UK-427,857] | 2.98 ± 0.65 | 4.16 ± 0.41 | 1.58 ± 0.17 | 11.31 ± 2.14 | 7.25 ± 2.19 | 2.00 ± 0.35 | – | – | 59 nM | 21 nM | IC90 ([2]; read-out: IC90 of the combination, 1:1 fixed molar ratio combination of PRO 140 and UK-427,857, FIG. 11A): 4.6 nM
B1 | – | – | – | – | – | – | 2.54 ± 0.13 | 1.87 ± 0.07 | – | 11 nM | IC50 [2, 10]: 2.9 nM; CI50 [2, 4]: 0.96
